Measurements taken from US20070128217A1 (priority 2003, published 2007).

Legend:
[1] = system: recombinant human anti-SARS-CoV antibody 03-018; format: binding; parameters: Binding of antibody 03-018 to linear peptides of the N protein of SARS-CoV Urbani / Binding of antibody 03-018 to looped/cyclic peptides of the N protein of SARS-CoV Urbani: unit not given here
[2] = system: rabbit serum obtained by immunizing a rabbit with the SARS-CoV strain Frankfurt 1; format: binding; parameters: Binding of a rabbit serum to linear peptides / Binding of a rabbit serum to looped peptides / Rabbit serum linear peptides / Rabbit serum looped peptides / Binding of a rabbit serum to linear peptides of protein N of SARS-CoV Urbani (Rabbit serum linear peptides) / Binding of a rabbit serum to looped/cyclic peptides of protein N of SARS-CoV Urbani (Rabbit serum looped peptides): unit not given here
[3] = system: antibodies in sera from SARS patients (sera 1a, 1b, 2, 6, 37, 62, London, SARS-yellow, SARS-green); format: binding, human; parameters: Binding of serum 6 to linear peptides of protein X1 of SARS-CoV Urbani / Binding of serum 37 to linear peptides of protein X1 of SARS-CoV Urbani / Binding of serum 6 to looped/cyclic peptide (PEPSCAN-ELISA) / Binding of serum 37 to looped/cyclic peptide (PEPSCAN-ELISA) / Binding of serum 37 to looped/cyclic peptides of protein X1 of SARS-CoV Urbani / Binding of serum 6 to linear peptides of protein X2 / Binding of serum 37 to linear peptides of protein X2 / Binding of serum 37 to looped/cyclic peptides of protein X2 of SARS-CoV Urbani / Binding of serum 6 to linear peptides of protein M of SARS-CoV Urbani / Binding of serum 37 to linear peptides of protein M of SARS-CoV Urbani / Binding of serum 6 to looped/cyclic peptides of protein M of SARS-CoV Urbani / Binding of serum 37 to looped/cyclic peptides of protein M of SARS-CoV Urbani / Binding of serum 6 to linear peptides of protein X3 of SARS-CoV Urbani / Binding of serum 37 to linear peptides of protein X3 of SARS-CoV Urbani / Binding of serum 37 to looped/cyclic peptides of protein X3 of SARS-CoV Urbani / Binding of serum 6 to linear peptides of protein X4 of SARS-CoV Urbani / Binding of serum 37 to linear peptides of protein X4 of SARS-CoV Urbani / Binding of serum 37 to looped/cyclic peptides of protein X4 of SARS-CoV Urbani / Binding of serum 6 to linear peptides of protein X5 of SARS-CoV Urbani / Binding of serum 37 to linear peptides of protein X5 of SARS-CoV Urbani / Binding of serum 37 to looped/cyclic peptides of protein X5 of SARS-CoV Urbani / Binding of serum 6 to linear peptides of protein N of SARS-CoV Urbani / Binding of serum 37 to linear peptides of protein N of SARS-CoV Urbani / Binding of serum 6 to linear peptide (PEPSCAN-ELISA) / Binding of serum 1a to looped/cyclic peptides of protein N of SARS-CoV Urbani / Binding of serum 1b to looped/cyclic peptides of protein N of SARS-CoV Urbani / Binding of serum 2 to looped/cyclic peptides of protein N of SARS-CoV Urbani / Binding of serum 6 to looped/cyclic peptides of protein N of SARS-CoV Urbani / Binding of serum 37 to looped/cyclic peptides of protein N of SARS-CoV Urbani / Binding of serum 62 to looped/cyclic peptides of protein N of SARS-CoV Urbani / Binding of serum London to looped/cyclic peptides of protein N of SARS-CoV Urbani / Binding of serum SARS-green to looped/cyclic peptides of protein N of SARS-CoV Urbani: unit not given here
[4] = system: control sera (pooled serum of ten healthy LUMC hospital workers; commercial negative donor pooled serum from the Dutch bloodbank); format: binding, human; parameters: Binding of Control serum LUMC to linear peptides / Binding of Control serum Blood-bank to linear peptides / Binding of Control serum LUMC to looped peptides / Binding of Control Serum Blood-Bank to Looped peptides / Binding of Control serum LUMC to linear peptides of the protein M of SARS-CoV Urbani / Binding of Control serum Blood-bank to linear peptides of the protein M of SARS-CoV Urbani / Binding of Control serum LUMC to looped peptides of the protein M of SARS-CoV Urbani / Binding of Control Serum Blood-Bank to Looped peptides of the protein M of SARS-CoV Urbani: unit not given here

Sequence | Binding of antibody 03-018 to linear peptides of the N protein of SARS-CoV Urbani [1] | Binding of antibody 03-018 to looped/cyclic peptides of the N protein of SARS-CoV Urbani [1] | Binding of a rabbit serum to linear peptides of protein N of SARS-CoV Urbani (Rabbit serum linear peptides) [2] | Binding of a rabbit serum to looped/cyclic peptides of protein N of SARS-CoV Urbani (Rabbit serum looped peptides) [2] | Binding of serum 1a to looped/cyclic peptides of protein N of SARS-CoV Urbani [3] | Binding of serum 1b to looped/cyclic peptides of protein N of SARS-CoV Urbani [3] | Binding of serum 2 to looped/cyclic peptides of protein N of SARS-CoV Urbani [3] | Binding of serum 6 to looped/cyclic peptides of protein N of SARS-CoV Urbani [3] | Binding of serum 37 to looped/cyclic peptides of protein N of SARS-CoV Urbani [3] | Binding of serum 62 to looped/cyclic peptides of protein N of SARS-CoV Urbani [3] | Binding of serum London to looped/cyclic peptides of protein N of SARS-CoV Urbani [3] | Binding of serum SARS-green to looped/cyclic peptides of protein N of SARS-CoV Urbani [3] | Binding of serum SARS-yellow to looped/cyclic peptides of protein N of SARS-CoV Urbani [3] | Binding of Control Serum Blood-Bank to Looped peptides [4] | Binding of Control serum Blood-bank to linear peptides [4] | Binding of Control serum LUMC to linear peptides [4] | Binding of Control serum LUMC to looped peptides [4] | Binding of serum 1a to linear peptides of protein N of SARS-CoV Urbani [3] | Binding of serum 1b to linear peptides of protein N of SARS-CoV Urbani [3] | Binding of serum 2 to linear peptides of protein N of SARS-CoV Urbani [3] | further results
QGNFGDQDLIRQGTD | 0.1 | 0.2 | 0.2 | 0.4 | 0.4 | 0.3 | 0.3 | 0.2 | 0.6 | 0.5 | 0.4 | 0.7 | 0.6 | 0.5 | 0.6 | 0.7 | 0.6 |  |  |  | Binding of serum 1a to linear peptide (PEPSCAN-ELISA) [3]: 0.3; Binding of serum 1b to linear peptide (PEPSCAN-ELISA) [3]: 0.2; Binding of serum 2 to linear peptide (PEPSCAN-ELISA) [3]: 0.2; Binding of serum 6 to linear peptide (PEPSCAN-ELISA) [3]: 0.2; Binding of serum 37 to linear peptide (PEPSCAN-ELISA) [3]: 0.8; Binding of serum 62 to linear peptide (PEPSCAN-ELISA) [3]: 0.8; Binding of serum London to linear peptide (PEPSCAN-ELISA) [3]: 0.5; Binding of serum SARS-green to linear peptide (PEPSCAN-ELISA) [3]: 0.6; Binding of serum SARS-yellow to linear peptide (PEPSCAN-ELISA) [3]: 0.8
QGQTVTKKSAAEASK | 0.1 | 0.2 | 0.2 | 0.2 | 0.2 | 0.1 | 0.2 | 0.1 | 0.4 | 0.2 | 0.3 | 0.1 | 0.2 | 0.4 | 1.1 | 1.0 | 0.4 |  |  |  | Recognition of the peptide by sera of SARS-CoV infected individuals, and form (linear, looped/cyclic) in which it is recognized [3]: recognized in linear form
QGTDYKHWPQIAQFA | 0.1 | 0.2 | 0.2 | 0.3 | 0.4 | 0.3 | 0.4 | 0.3 | 0.6 | 0.6 | 0.5 | 0.3 | 0.7 |  |  |  |  | 0.3 | 0.2 | 0.2 | Binding of serum 6 to linear peptides of protein N of SARS-CoV Urbani [3]: 0.2; Binding of serum 37 to linear peptides of protein N of SARS-CoV Urbani [3]: 0.8; Binding of serum 62 to linear peptides of protein N of SARS-CoV Urbani [3]: 0.8; Binding of serum London to linear peptides of protein N of SARS-CoV Urbani [3]: 0.7; Binding of serum SARS-green to linear peptides of protein N of SARS-CoV Urbani [3]: 0.2; Binding of serum SARS-yellow to linear peptides of protein N of SARS-CoV Urbani [3]: 0.7; Control Serum Blood-Bank Looped peptides [4]: 0.6; Control serum Blood-bank linear peptides [4]: 0.8; Control serum LUMC linear peptides [4]: 0.6; Control serum LUMC looped peptides [4]: 0.7
QIGYYRRATRRVRGG | 0.1 | 0.2 |  |  | 0.3 | 0.2 | 0.4 | 0.3 | 0.7 | 0.6 | 0.4 | 0.4 | 0.6 | 0.8 | 0.8 | 0.6 | 0.7 | 0.3 | 0.1 | 0.2 | Recognition of the peptide by the rabbit serum [2]: recognized; Binding of serum 6 to linear peptides of protein N of SARS-CoV Urbani [3]: 0.2; Binding of serum 37 to linear peptides of protein N of SARS-CoV Urbani [3]: 0.6; Binding of serum 62 to linear peptides of protein N of SARS-CoV Urbani [3]: 0.6; Binding of serum London to linear peptides of protein N of SARS-CoV Urbani [3]: 0.5; Binding of serum SARS-green to linear peptides of protein N of SARS-CoV Urbani [3]: 0.2; Binding of serum SARS-yellow to linear peptides of protein N of SARS-CoV Urbani [3]: 0.6
